We go through one substance from patent publication EP2992880A1, “Use of heme oxygenase 1 inducers and cannabinoid 2 receptor or delta-opioid receptor agonists in inflammatory pain” (Fundació Institut de Recerca de l'Hospital de la Santa Creu …, priority 2014, dated 2016).

In one assay the test system is DOR. As to the kind of experiment: Western blot of DOR protein in dorsal root ganglia of CFA-injected mice. The assay is classed as in vivo. The conditions noted are these: CoPP treatment of CFA-injected mice; P < 0.001 (Fig. 7). As for the experimental part:
(§1) Animals were sacrificed at 0 days (naive) and after CFA-injection by cervical dislocation. Tissues from the ipsilateral section of the dorsal root ganglia (L3 to L5) were removed immediately after killing, frozen in liquid nitrogen, and stored at -80°C until assay. Samples from five animals were pooled into one experimental sample to obtain enough protein levels for performing Western blot analysis. The HO-1, DOR and CB2R protein levels were analyzed by Western blot. […]
(§2) The proteins were electrophoretically transferred onto PVDF membrane for 120 min, blocked with PBS + 5% nonfat dry milk, and subsequently incubated overnight at 4°C with polyclonal rabbit anti-HO-1 (1:300, Stressgen, Ann Arbor, MI), anti-DOR (1:2500, Chemicon-Millipore) or anti-CB2R (1:500, Abcam, Cambridge, United Kingdom). The proteins were detected by a horseradish peroxidase-conjugated anti-rabbit secondary antibody (GE Healthcare, Little Chalfont, Buckinghamshire, United Kingdom) and visualized with chemiluminescence reagents (ECL kit; GE Healthcare) and by exposure onto hyperfilm (GE Healthcare). The intensity of blots was quantified by densitometry. […]
(§3) Finally, in another set of experiments we evaluated the effects of CoPP on the expression of HO-1, DOR and CB2R in the ipsilateral site of the dorsal root ganglia from CFA-injected mice, by using Western blot assay. […]
In general terms: In western blotting, separated proteins are transferred to a membrane and probed.

For a further assay, the system named is HO-1. In words: Western blot of HO-1 protein in dorsal root ganglia of CFA-injected mice. Format: in vivo. The conditions noted are these: CoPP treatment of CFA-injected mice; P < 0.001 (Fig. 6). As to the method:
as §1, §2, §3

The subject of the next assay is CFA-injected mice. As to the kind of experiment: plantar test (thermal hyperalgesia) in CFA-induced chronic inflammatory pain. Format: in vivo, male C57BL/6 mice. As for the experimental part:
The experiments were performed in male C57BL/6 mice acquired from Harlan Laboratories (Barcelona, Spain). All mice weighing 21 to 25 g were housed under 12-h/12-h light/ dark conditions in a room with controlled temperature (22° C) and humidity (66%). Animals had free access to food and water and were used after a minimum of 7 days acclimatization to the housing conditions. All experiments were performed according with the Guide for the Care and Use of Laboratory Animals as adopted and promulgated by the U.S. National Institutes of Health and approved by the local Committee of Animal Use and Care of the Autonomous University of Barcelona. All efforts were made to minimize animal suffering and to reduce the number of animals used.
Chronic inflammatory pain was induced by the subplantar injection of 30 µl of CFA (Sigma) into the right hind paw under brief anesthetic conditions with isoflurane according to previous works (Leánez et al., Eur J Pharmacol, 2009, 602:41-49; Hervera et al., Naunyn Schmiedebergs Arch Pharmacol, 2009, 380:345-352). All experiments were performed at 10 days after CFA injection. At this time point, all of these animals developed a local inflammatory reaction, allodynia to mechanical stimuli and hyperalgesia to noxious thermal stimuli, as previously reported (Negrete et al., PLoS One, 2011, 6:e26688). The development of mechanical allodynia and thermal hyperalgesia was evaluated by using the von Frey filaments and plantar tests, respectively. All animals were tested in each paradigm before and at 10 days after CFA-injection.
Thermal hyperalgesia was assessed as previously reported by Hargreaves et al. (Pain, 1988, 32:77-88). Paw withdrawal latency in response to radiant heat was measured using the plantar test apparatus (Ugo Basile, Varese, Italy). Briefly, mice were placed in methacrylate cylinders (20 cm high x 9 cm diameter) positioned on a glass surface. The heat source was positioned under the plantar surface of the hind paw and activated with a light beam intensity, chosen in preliminary studies to give baseline latencies from 8 to 10 s in control mice. A cut-off time of 12 s was used to prevent tissue damage in absence of response. The mean paw withdrawal latencies from the ipsilateral and contralateral hind paws were determined from the average of three separate trials, taken at 5 min intervals to prevent thermal sensitization and behavioral disturbances. Animals were habituated to the environment for 1 h before the experiment to become quiet and to allow testing. […]
In another set of experiments, we evaluated the mechanical antiallodynic and thermal antihyperalgesic effects produced by the subplantar administration of 290 µg of SnPP alone or combined with the subplantar administration of a high dose of DPDPE (150 µg) or JWH-015 (300 µg) in the contralateral and ipsilateral paw of CFA-injected animals (n = 6 animals per group).
The reversibility of the antinociceptive effects produced by the subplantar administration of DPDPE (150 µg) or JWH-015 (300 µg), as doses that produce the maximal antiallodynic and antihyperalgesic effects after peripheral inflammation, by their subplantar coadministration with specific (naltrindole; 50 µg; AM630; 60 µg) and an unspecific peripheral opioid antagonist (naloxone methiodide, NX-ME; 50 µg) or a cannabinoid 1 receptor (CB1R) antagonist (AM251; 150 µg) (Hervera et al., J Pharmacol Exp Ther, 2010, 334: 887-896; Hervera et al., Mol Pain, 2011, 7:25) was also evaluated (n = 6 animals per group). The doses of all tested opioid and cannabinoid receptor antagonists were selected according to our previous data in animals with chronic pain (Hervera et al., Naunyn Schmiedebergs Arch Pharmacol, 2009, 380:345-352; Hervera et al., Psychopharmacology, 2013, 228:463-477; Negrete et al., PLoS One, 2011, 6:e26688).
CoPP and SnPP were dissolved in DMSO (1 % solution in saline). JWH-015, AM630, AM251 were dissolved in DMSO (50 % solution in saline). […]

For assay [1] the following is noted: inflammatory pain; cited from earlier work.

In the case of “cobalt (III) protoporphyrin IX chloride [CoPP]”, the “decreased protein levels of DOR in the dorsal root ganglia from CFA-injected mice” value in the assay with DOR is recorded as “avoided”. For the same substance, the “dorsal root ganglia expression of HO-1” value in the assay on HO-1 is on record as “significantly increased”. In addition, the “effect of CoPP treatment on the thermal antihyperalgesic effects of DPDPE” value in the assay with CFA-injected mice (CoPP 10 mg/kg intraperitoneal, DPDPE 50 µg subplantar, P < 0.001 (Fig. 3B)) was “significantly increased”. In addition, the “effect of CoPP treatment on the antihyperalgesic effects of JWH-015” value with CFA-injected mice (CoPP 10 mg/kg intraperitoneal, JWH-015 30 µg subplantar, P < 0.001 (Fig. 4B)) was “significantly enhanced”. The “thermal hyperalgesia induced by peripheral inflammation” value in the assay with CFA-injected mice (CoPP alone 10 mg/kg intraperitoneal, ipsilateral paw, P < 0.001 versus vehicle (Fig. 3B)) is “significantly attenuated”. Further, the “Thermal hyperalgesia, Experimental results (%) (maximal possible effect)” value in the assay with CFA-injected mice (Table 5, ipsilateral paw, CoPP 10 mg/kg intraperitoneal, DPDPE 50 µg subplantar, vehicle 4.0) turned out to be 26.8%; with CFA-injected mice (Table 6, ipsilateral paw, CoPP 10 mg/kg intraperitoneal, JWH-015 30 µg subplantar, vehicle 4.9), 22.3%. In addition, the “effect of CoPP on the antinociceptive effect of morphine” value in assay [1] is recorded as “increases”.
